According to the NIST ThermoML archive (doi:10.1021/je800188a):
Numbers after ± are expanded uncertainties.

Experiment: mean ionic activity coefficient (dimensionless); mn = molality of the nth substance listed, in mol/kg
Conditions: 298.15 K, 101 kPa, Liquid

SMILES | mean ionic activity coefficient (m1 = 0.2) | mean ionic activity coefficient (m1 = 0.4) | mean ionic activity coefficient (m1 = 0.6) | mean ionic activity coefficient (m1 = 0.8) | mean ionic activity coefficient (m1 = 1) | mean ionic activity coefficient (m1 = 1.2) | mean ionic activity coefficient (m1 = 1.4) | mean ionic activity coefficient (m1 = 1.6) | mean ionic activity coefficient (m1 = 1.8) | mean ionic activity coefficient (m1 = 2) | mean ionic activity coefficient (m1 = 2.2) | mean ionic activity coefficient (m1 = 2.4) | mean ionic activity coefficient (m1 = 2.6) | mean ionic activity coefficient (m1 = 2.8) | mean ionic activity coefficient (m1 = 3) | mean ionic activity coefficient (m1 = 3.2) | mean ionic activity coefficient (m1 = 3.4) | mean ionic activity coefficient (m1 = 3.6) | mean ionic activity coefficient (m1 = 3.8) | mean ionic activity coefficient (m1 = 4) | further results
[Cl-].[K+] [potassium chloride] + O | 0.719 ± 0.05 | 0.669 ± 0.05 | 0.641 ± 0.05 | 0.623 ± 0.05 | 0.61 ± 0.05 | 0.601 ± 0.05 | 0.593 ± 0.05 | 0.588 ± 0.05 | 0.584 ± 0.05 | 0.58 ± 0.05 | 0.578 ± 0.05 | 0.576 ± 0.05 | 0.575 ± 0.05 | 0.575 ± 0.05 | 0.575 ± 0.05 | 0.576 ± 0.05 | 0.576 ± 0.05 | 0.578 ± 0.05 | 0.58 ± 0.05 | 0.582 ± 0.05 | mean ionic activity coefficient (m1 = 4.2): 0.584 ± 0.05; mean ionic activity coefficient (m1 = 4.4): 0.587 ± 0.05; mean ionic activity coefficient (m1 = 4.6): 0.59 ± 0.05; mean ionic activity coefficient (m1 = 4.8): 0.593 ± 0.05; mean ionic activity coefficient (m1 = 4.803): 0.593 ± 0.05
[Cl-].[Na+] [sodium chloride] + O | 0.734 ± 0.05 | 0.694 ± 0.05 | 0.676 ± 0.05 | 0.666 ± 0.05 | 0.662 ± 0.05 | 0.66 ± 0.05 | 0.662 ± 0.05 | 0.665 ± 0.05 | 0.669 ± 0.05 | 0.675 ± 0.05 | 0.682 ± 0.05 | 0.69 ± 0.05 | 0.699 ± 0.05 | 0.709 ± 0.05 | 0.72 ± 0.05 | 0.732 ± 0.05 | 0.744 ± 0.05 | 0.758 ± 0.05 | 0.772 ± 0.05 | 0.787 ± 0.05 | mean ionic activity coefficient (m1 = 4.2): 0.803 ± 0.05; mean ionic activity coefficient (m1 = 4.4): 0.82 ± 0.05; mean ionic activity coefficient (m1 = 4.6): 0.838 ± 0.05; mean ionic activity coefficient (m1 = 4.8): 0.857 ± 0.05; mean ionic activity coefficient (m1 = 5): 0.877 ± 0.05; mean ionic activity coefficient (m1 = 5.2): 0.898 ± 0.05; mean ionic activity coefficient (m1 = 5.4): 0.92 ± 0.05; mean ionic activity coefficient (m1 = 5.6): 0.943 ± 0.05; mean ionic activity coefficient (m1 = 5.8): 0.968 ± 0.05; mean ionic activity coefficient (m1 = 6): 0.993 ± 0.05; mean ionic activity coefficient (m1 = 6.144): 1.01 ± 0.051
